Results reported in PubChem BioAssay (NCI).
Several values for one entry are separate records, joined by “and”; a condition that tells them apart may be missing. Equal entries are not always repeated.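 Exposure lasted 48 hours, with cells grown in 96-well plates and compounds tested at five concentrations. GI50 is the concentration that inhibits growth by half. TGI denotes the concentration required for complete inhibition of growth.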

Legend:
Experiment in all cases: NCI tumour cell line growth inhibition, 48 h
MCF7 breast = tested on: MCF7 breast
MDA-MB-231 breast = tested on: MDA-MB-231 breast
MDA-MB-435 = tested on: MDA-MB-435
RPMI-8226 leukemia = tested on: RPMI-8226 leukemia
SF-268 CNS = tested on: SF-268 CNS
SF-539 CNS = tested on: SF-539 CNS
SK-MEL-5 melanoma = tested on: SK-MEL-5 melanoma
SW-620 colon = tested on: SW-620 colon
UACC-257 melanoma = tested on: UACC-257 melanoma
NCI-H226 lung = tested on: NCI-H226 lung

| SMILES | GI50 (MCF7 breast) [µM] | TGI (MCF7 breast) [µM] | GI50 (MDA-MB-231 breast) [µM] | TGI (MDA-MB-231 breast) [µM] | GI50 (MDA-MB-435) [µM] | TGI (MDA-MB-435) [µM] | GI50 (RPMI-8226 leukemia) | TGI (RPMI-8226 leukemia) [µM] | GI50 (SF-268 CNS) [µM] | TGI (SF-268 CNS) [µM] | GI50 (SF-539 CNS) [µM] | TGI (SF-539 CNS) | GI50 (SK-MEL-5 melanoma) [µM] | TGI (SK-MEL-5 melanoma) | GI50 (SW-620 colon) | TGI (SW-620 colon) [µM] | GI50 (UACC-257 melanoma) [µM] | TGI (UACC-257 melanoma) [µM] | TGI (NCI-H226 lung) [µM] | GI50 (NCI-H226 lung) |
| --- | --- | --- | --- | --- | --- | --- | --- | --- | --- | --- | --- | --- | --- | --- | --- | --- | --- | --- | --- | --- |
| OCC#Cc1ccccc1C#Cc1ccc(C#Cc2ccccc2C#CCO)s1 | 29.9 | > 100 | 18.9 | 53.5 | 15.1 | 29.2 | 22.2 µM | 49.1 | 20.6 | 44.5 | 18.1 | 34.2 µM | 16.3 | 31.2 µM | 18.4 µM | 37.3 | 22.1 | 42.7 |  |  |
| O=C(O)/C(=C\c1ccccc1Cl)S(=O)(=O)c1ccccc1 |  |  |  |  |  |  |  | > 100 |  | > 100 |  | > 100 µM |  | > 100 µM |  | > 100 |  | > 100 |  |  |
| CC(O)(CNS(=O)(=O)c1ccccc1)c1ccccc1 (configuration not stated) |  | > 100 |  | > 100 |  | > 100 |  | > 100 |  | > 100 |  |  |  | > 100 µM |  | > 100 |  |  | > 100 |  |
| N[C@@H]1CCCC[C@@H]1N.O=C([O-])CN(CP(=O)([O-])[O-])CP(=O)([O-])[O-].[Pt+2] |  |  |  |  |  |  | > 100 µM | > 100 | > 100 | > 100 | > 100 | > 100 µM | > 100 | > 100 µM | > 100 µM | > 100 | > 100 | > 100 | > 100 | > 100 µM |
| Cc1cc(C)cc(Nc2ccc([N+](=O)[O-])c(NCCN3CCOCC3)n2)c1 | 0.000327 | > 100 |  |  |  | 0.0115 | 0.00455 µM and 0.0366 µM | > 100 |  | 85.2 | 0.0016 | 0.00587 µM and 0.0564 µM | 0.00082 | 0.0332 µM and 0.256 µM | 0.00176 µM and 0.0147 µM | > 100 | > 100 | > 100 | > 100 | 0.0365 µM and 0.0614 µM |
| COc1cc2c([C@@H](OC(=O)c3ccccc3)c3ccc4c(c3)OCO4)nccc2c(OC)c1OC |  |  |  |  |  |  |  | 51 |  | > 100 |  | > 100 µM |  | 69.8 µM |  | > 100 |  | > 100 | 94.5 |  |
| COC(=O)/C(=C/c1ccc(OC)cc1)NC(=O)c1ccccc1 |  |  |  |  |  |  |  | > 100 |  | > 100 |  | > 100 µM |  | > 100 µM |  | > 100 |  | > 100 | > 100 |  |
| Cc1[nH]nc2c1C(=O)C=C(N(CCO)c1ccccc1)C2=O |  |  |  |  |  |  |  | > 100 |  |  |  | > 100 µM |  | > 100 µM |  | > 100 |  | > 100 | > 100 |  |
| CC(=O)/C=C/C1=C(c2cccs2)c2ccccc2CC1 |  |  | 23.3 | 59.1 | 25.8 | 51.3 | 19.9 µM | 47.6 |  |  | 27.5 | 81 µM |  |  | 33.9 µM | > 100 | 19.7 | 41.7 | 93.5 | 28.7 µM |
| NCCP(=O)(O)O |  | > 100 |  | > 100 |  | > 100 |  | > 100 |  | > 100 |  |  |  | > 100 µM |  | > 100 |  | > 100 | > 100 |  |
| O=C(NNS(=O)(=O)c1ccc(F)cc1)c1cccnc1Nc1ccc(Cl)cc1Cl | 31.5 | > 100 | 28.8 | > 100 | 84.4 | > 100 |  |  | 45.2 | > 100 | 26 | 73.7 µM | 25.3 | 86 µM | 29.1 µM | > 100 | 11.8 | 51.9 | 96.9 | 29.6 µM |
| Cc1ccc(NC(=O)C2C(=O)N(c3ccc(C)c(C)c3)C(=O)/C2=N\NC(N)=S)cc1C (configuration not stated) |  |  |  |  |  |  |  | > 100 |  | > 100 |  | > 100 µM |  |  |  | > 100 |  | > 100 | > 100 |  |
| CNC(=O)OC1C(O[C@H]2C[C@H]3[C@@H]4CC=C5C[C@@H](O)CC[C@]5(C)[C@H]4CC[C@]3(C)[C@H]2[C@H](C)C(=O)CCC(C)C)OCC(O)C1OC1OCC(O)C(O)C1OC(=O)c1ccc(OC)cc1 (some centres not stated) | 0.0149 | 2.87 | 0.103 | 4.62 | 0.0203 | 0.359 | < 0.00275 µM | 0.0112 | 0.0226 | 2.78 | < 0.00275 | 0.0185 µM | 0.026 | 0.317 µM | 0.0122 µM | 0.383 | 0.0237 | 0.105 |  |  |
| Cc1ccc(C2C3=C(N=c4s/c(=C/c5ccc(Br)cc5)c(=O)n42)c2ccc4ccccc4c2OCC3)cc1 (configuration not stated) | > 100 | > 100 | > 100 | > 100 | > 100 | > 100 | > 100 µM | > 100 | > 100 | > 100 | > 100 | > 100 µM | > 100 | > 100 µM | > 100 µM | > 100 | 35.7 | > 100 |  |  |
| CCCCCC(O)(CCCCC)CCCCCCCCC1=C(O)c2[nH]c(=O)ccc2C(=O)C1=O |  |  |  |  |  |  |  | 25.3 |  | 19.1 |  | 20.3 µM |  | 12.9 µM |  | 20.6 |  | 14.3 | 28.8 |  |
| Cc1nc2cc(Nc3nc(Nc4ccc(F)cc4)nc(N4CCN(C)CC4)n3)ccc2n1Cc1ccccc1 | 1.36 | 3.38 | 1.69 | 3.36 | 1.87 | 3.56 | 1.75 µM | 4.28 | 1.86 | 4.08 | 1.73 | 3.13 µM | 1.54 | 2.89 µM | 1.79 µM | 3.95 | 1.8 | 3.3 |  |  |
| CCCCCCNc1nc(N2CCOCC2)c2[nH]c(NCCCCCC)nc2n1 |  |  | 1.81 | 3.3 |  |  | 1.91 µM | 5.42 | 1.78 | 3.44 | 1.82 | 3.33 µM | 1.42 | 2.72 µM | 1.44 µM | 2.76 | 1.62 | 3.16 | 4 | 1.7 µM |
| CC1(C)CC(=O)C(=[N+]=[N-])C(=O)C1 |  |  |  |  |  |  |  | > 100 |  | > 100 |  | > 100 µM |  |  |  | > 100 |  | > 100 | > 100 |  |
